# Where “and” joins values, the source holds several entries; their conditions need not be identical. Identical values can stand only once.
# Tests used:
# [1] = molecular target: GABA-A receptor; anion channel; experiment: Binding affinity against the BZD site of the Gamma-aminobutyric acid A receptor in rat cerebral cortex using radioligand ([3H]flunitrazepam) assay in the absence of Gamma-aminobutyric acid; assay type: tissue-based
# [2] = molecular target: GABA-A receptor; anion channel; experiment: Binding affinity against the BZD site of the Gamma-aminobutyric acid A receptor in rat cerebral cortex using radioligand ([3H]flunitrazepam) assay in the presence of Gamma-aminobutyric acid; assay type: tissue-based
# [3] = molecular target: T1, GABA-A receptor; anion channel (Rattus norvegicus) (UniProt O09028+P15431+P18506+P18508+P19969+P20236+P23574+P23576+P28471+P28473+P30191+P62813+P63079+P63138+Q91ZM7+Q9ES14); experiment: Ratio of IC50 (no GABA) to IC50 (GABA) was measured as GABA Shift (GS); assay type: protein-complex assay
# Mus sp. = organism: Mus sp.; experiment: Test ability to block the tonic-clonic component of seizures induced by metrazole in mice.; assay type: functional
# Rattus norvegicus [4] = organism: Rattus norvegicus; experiment: animal or person; conditions: read-out: MED
# Rattus norvegicus [5] = organism: Rattus norvegicus; experiment: animal or person; conditions: read-out: MED; remark: listed apart in the source
# [6] = molecular target: T1, GABA-A receptor; anion channel (Rattus norvegicus); experiment: Relative binding in the presence and absence of GABA, (IC50-GABA /IC50+GABA); assay type: protein-complex assay
# Rattus norvegicus [7] = organism: Rattus norvegicus; experiment: Compound was tested for its ability to release (i.e., disinhibit) behavior that had been suppressed by punishment in rats (vogel conflict test).; assay type: functional; conditions: read-out: MED
# [8] = Tested for skeletal muscle relaxant activity using horizontal screen assay.; assay type: functional
# Rattus norvegicus [9] = organism: Rattus norvegicus; experiment: The compound was tested for its ability to release (i.e., disinhibit) behavior that had been suppressed by punishment in rats (vogel conflict test).; assay type: functional; conditions: read-out: MED
# Mus musculus = organism: Mus musculus; experiment: Compound was tested for its ability to block the tonic-clonic component of seizures induced by metrazole in mice; Range = 10-30; assay type: functional
# [10] = Tested for its interaction with ethanol by its ability to potentiate the effect of ethanol on sleep.; assay type: functional; conditions: read-out: MED
structure (smiles),measurement,setting,value
O=C(Nc1cnccn1)C1=C(O)CCn2c1nc1ccccc12,IC50,[1],360 nM
same,IC50,[2],400 nM
same,GABA shift,[3],0.9
same,ED50,"Mus sp.; Mus sp., read-out: ED50",> 10 mg/kg
O=C(Nc1cccnc1)C1=C(O)CCn2c1nc1ccccc12,IC50,[1],51 nM
same,IC50,[2],48 nM
same,GABA shift,[3],1.1
CN1C(=O)CN=C(c2ccccc2)c2cc(Cl)ccc21 [DIAZEPAM],minimal effective dose,Rattus norvegicus [4],5 mg/kg
same,minimal effective dose,Rattus norvegicus [5],5 mg/kg
same,ED50,Mus sp.,0.11 mg/kg and 0.3 mg/kg
O=C(Nc1ccc(O)cc1)C1=C(O)CCn2c1nc1ccccc12,IC50,[1],46 nM
same,IC50,[2],31 nM
same,GABA shift,[6],1.5
same,ED50,Mus sp.,>30 mg/kg and 10 mg/kg
O=C(NCc1cccnc1)C1=C(O)CCn2c1nc1ccccc12,IC50,[1],150 nM
same,IC50,[2],140 nM
same,GABA shift,[3],1.1
same,ED50,"Mus sp.; Mus sp., read-out: ED50",> 10 mg/kg
O=C(Nc1ccnc(Cl)c1)C1=C(O)CCn2c1nc1ccccc12,IC50,[1],68 nM
same,IC50,[2],65 nM
same,GABA shift,[3],1.1
same,ED50,Mus sp.,3.7 mg/kg and 10 mg/kg
O=C(Nc1ccncc1)c1c(O)ccn2c1nc1ccccc12,IC50,[1],260 nM
same,IC50,[2],150 nM
same,GABA shift,[3],1.7
same,ED50,"Mus sp.; Mus sp., read-out: ED50",> 10 mg/kg
O=C1CCN2C(=C1C(=O)Nc1ccccc1)Nc1ccccc12,minimal effective dose,Rattus norvegicus [7],> 10 mg/kg
same,ED50,[8],>30 mg/kg and 10 mg/kg
same,minimal effective dose,Rattus norvegicus [9],10 mg/kg
same,GABA shift,[6],1.5
same,ED50,Mus musculus,10 mg/kg
same,ED50,"Mus sp.; Mus sp., read-out: ED50",5.2 mg/kg
CN(C)c1ccc(NC(=O)C2=C(O)CCn3c2nc2ccccc23)cc1,minimal effective dose,Rattus norvegicus [7],10 mg/kg
same,IC50,[1],270 nM
same,IC50,[2],210 nM
same,ED50,[8],>30 mg/kg and 10 mg/kg
same,minimal effective dose,Rattus norvegicus [9],3 mg/kg
same,GABA shift,[3],1.2
CN(C)c1ccccc1NC(=O)C1=C(O)CCn2c1nc1ccccc12,IC50,[1],10000 nM
same,ED50,Mus sp.,4.9 mg/kg and 10 mg/kg
O=C(Nc1ccc(C(=O)O)cc1)C1=C(O)CCn2c1nc1ccccc12,IC50,[1],> 10000 nM
same,IC50,[2],> 10000 nM
same,ED50,Mus sp.,>30 mg/kg and 10 mg/kg
O=C(Nc1ccncc1Cl)C1=C(O)CCn2c1nc1ccccc12,IC50,[1],220 nM
same,IC50,[2],100 nM
same,GABA shift,[3],2.2
O=C(Nc1ccncn1)C1=C(O)CCn2c1nc1ccccc12,IC50,[1],480 nM
same,IC50,[2],370 nM
same,GABA shift,[3],1.3
same,ED50,Mus sp.,10 mg/kg
same,ED50,"Mus sp.; Mus sp., read-out: ED50",> 10 mg/kg
O=C(Nc1ccncc1F)C1=C(O)CCn2c1nc1ccccc12,IC50,[1],53 nM
same,IC50,[2],20 nM
same,GABA shift,[3],2.6
CN(C)c1ccc(NC(=O)C2=C(O)CCn3c2nc2ccccc23)c(F)c1,IC50,[1],120 nM
same,IC50,[2],87 nM
same,GABA shift,[3],1.4
Cc1cnccc1NC(=O)C1=C(O)CCn2c1nc1ccccc12,IC50,[1],7100 nM
same,IC50,[2],12000 nM
same,GABA shift,[3],0.6
same,ED50,"Mus sp.; Mus sp., read-out: ED50",> 10 mg/kg
O=C(NCc1ccncc1)C1=C(O)CCn2c1nc1ccccc12,IC50,[1],65 nM
same,IC50,[2],69 nM
same,GABA shift,[3],0.9
same,ED50,"Mus sp.; Mus sp., read-out: ED50",> 10 mg/kg
O=C(Nc1ccncc1)C1=C(O)CCn2c1nc1ccccc12,minimal effective dose,Rattus norvegicus [7],10 mg/kg
same,IC50,[1],160 nM
same,IC50,[2],78 nM
same,ED50,[8]; read-out: ED50,> 30 mg/kg
same,minimal effective dose,[10],> 60 mg/kg
same,minimal effective dose,Rattus norvegicus [9],3 mg/kg
same,GABA shift,[3],2.1
same,ED50,Mus sp.,3.1 mg/kg and 7.8 mg/kg
O=C(Nc1ncccn1)C1=C(O)CCn2c1nc1ccccc12,IC50,[1],54 nM
same,IC50,[2],50 nM
same,GABA shift,[3],1.1
CN(C)c1ccc(NC(=O)C2=C3N(C)c4ccccc4N3CCC2=O)cc1,IC50,[1],29 nM
same,IC50,[2],16 nM
same,GABA shift,[6],1.8
C[n+]1ccc(NC(=O)C2=C(O)CCn3c2nc2ccccc23)cc1,IC50,[1],6300 nM
same,IC50,[2],3100 nM
same,GABA shift,[3],2
same,ED50,"Mus sp.; Mus sp., read-out: ED50",> 10 mg/kg
CN(C)c1cccc(NC(=O)C2=C(O)CCn3c2nc2ccccc23)c1,IC50,[1],37 nM
same,IC50,[2],25 nM
same,GABA shift,[3],1.5
Nc1ccc(NC(=O)C2=C(O)CCn3c2nc2ccccc23)cc1,IC50,[1],13000 nM
same,IC50,[2],3400 nM
same,GABA shift,[3],3.8
O=C(Nc1ccccn1)C1=C(O)CCn2c1nc1ccccc12,IC50,[1],59 nM
same,IC50,[2],36 nM
same,GABA shift,[3],1.7
same,ED50,Mus sp.,10 mg/kg
same,ED50,"Mus sp.; Mus sp., read-out: ED50",11.2 mg/kg
Nc1ccccc1NC(=O)C1=C(O)CCn2c1nc1ccccc12,IC50,[1],50 nM
same,IC50,[2],33 nM
same,GABA shift,[6],1.5
Cc1cc(N(C)C)ccc1NC(=O)C1=C(O)CCn2c1nc1ccccc12,IC50,[1],4000 nM
same,IC50,[2],1500 nM
same,GABA shift,[3],2.7
CCN1C2=C(C(=O)Nc3ccncc3)C(=O)CCN2c2ccccc21,minimal effective dose,Rattus norvegicus [7],3 mg/kg
same,IC50,[1],80 nM
same,IC50,[2],27 nM
same,minimal effective dose,[10],10 mg/kg
same,minimal effective dose,Rattus norvegicus [9],3 mg/kg
same,GABA shift,[3],3
